Reference: patent publication US20230085307A1, “PYRIDAZINONE COMPOUND AND HERBICIDE” (NISSAN CHEMICAL CORPORATION, priority 2019, published 2023)

Columns and labels:
late watergrass = assay: Test Example 1: herbicidal activity, application before weed generation under submerged conditions (Table 16, symbol A); format: in vivo, late watergrass (Echinochloa oryzicola); settings: 320 g/ha applied herbicide
Procedure, shortened: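 Submerged Wagner pots (alluvial soil, 4 cm water) sown with weed seeds and planted with 2.5-leaf rice seedlings; emulsifiable concentrate diluted in water applied to water surface on sowing day. Held in greenhouse at 25-30 °C; injury scored 0-5 by herbicidal rate after three weeks.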

Japanese bulrush = assay: Test Example 2: herbicidal activity, application during weed generation under submerged conditions (Table 17, symbol B); format: in vivo, Japanese bulrush (Schoenoplectus juncoides); settings: AAH 320 g/ha; application during weed generation, submerged conditions
Procedure, shortened: (§1)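 Wagner pot, alluvial soil, 4 cm flood; mixed sowing of all species; greenhouse 25° C.–30° C. Emulsifiable formulation, water-diluted to predetermined dose, applied to paddy water at 1–2 leaf stage. Effect rated at 3 wk using the earlier test's scoring criteria.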

oval-leafed pondweed = assay: Test Example 2: herbicidal activity, application during weed generation under submerged conditions (Table 17, symbol C); format: in vivo, oval-leafed pondweed (Monochoria vaginalis); settings: AAH 320 g/ha; application during weed generation, submerged conditions
Procedure, shortened: as §1

southern crabgrass [1] = assay: Test Example 4: herbicidal effect by soil treatment (Table 19, symbol F); format: in vivo, southern crabgrass (Digitaria ciliaris); settings: amount of applied herbicide 320 g/ha
Procedure, shortened: (§2)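 Emulsion of test compound, water-diluted to predetermined amount, sprayed on soil after sowing (seed depth ~1.5 cm, sterilized diluvial soil). Greenhouse, 25–30° C. Effect graded at three weeks post-spray.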

green foxtail = assay: Test Example 4: herbicidal effect by soil treatment (Table 19, symbol G); format: in vivo, green foxtail (Setaria viridis); settings: amount of applied herbicide 320 g/ha
Procedure, shortened: as §2

blackgrass = assay: Test Example 4: herbicidal effect by soil treatment (Table 19, symbol J); format: in vivo, blackgrass (Alopecurus myosuroides); settings: amount of applied herbicide 320 g/ha
Procedure, shortened: as §2

Italian ryegrass [2] = assay: Test Example 4: herbicidal effect by soil treatment (Table 19, symbol K); format: in vivo, Italian ryegrass (Lolium multiflorum); settings: amount of applied herbicide 320 g/ha
Procedure, shortened: as §2

redroot pigweed [3] = assay: Test Example 4: herbicidal effect by soil treatment (Table 19, symbol N); format: in vivo, redroot pigweed (Amaranthus retroflexus); settings: amount of applied herbicide 320 g/ha
Procedure, shortened: as §2

chickweed = assay: Test Example 4: herbicidal effect by soil treatment (Table 19, symbol P); format: in vivo, common chickweed (Stellaria media); settings: amount of applied herbicide 320 g/ha
Procedure, shortened: as §2

persian speedwell [4] = assay: Test Example 4: herbicidal effect by soil treatment (Table 19, symbol R); format: in vivo, Persian speedwell (Veronica persica); settings: amount of applied herbicide 320 g/ha
Procedure, shortened: as §2

southern crabgrass [5] = assay: Test Example 5: herbicidal effect by foliage application, plastic box (Table 20, symbol F); format: in vivo, southern crabgrass (Digitaria ciliaris); settings: foliage application, 320 g/ha, evaluated three weeks after application
Procedure, shortened: (§3)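 Post-emergence foliar test in sterilized diluvial soil. Compound applied as water-diluted emulsion at a predetermined rate to 14-day-old plants; evaluation at three weeks.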

barnyard grass = assay: Test Example 5: herbicidal effect by foliage application, plastic box (Table 20, symbol H); format: in vivo, barnyard grass (Echinochloa crus-galli); settings: foliage application, 320 g/ha, evaluated three weeks after application
Procedure, shortened: as §3

Italian ryegrass [6] = assay: Test Example 5: herbicidal effect by foliage application, plastic box (Table 20, symbol K); format: in vivo, Italian ryegrass (Lolium multiflorum); settings: foliage application, 320 g/ha, evaluated three weeks after application
Procedure, shortened: as §3

redroot pigweed [7] = assay: Test Example 5: herbicidal effect by foliage application, plastic box (Table 20, symbol N); format: in vivo, redroot pigweed (Amaranthus retroflexus); settings: foliage application, 320 g/ha, evaluated three weeks after application
Procedure, shortened: as §3

lambsquarters = assay: Test Example 5: herbicidal effect by foliage application, plastic box (Table 20, symbol O); format: in vivo, lambsquarters (Chenopodium album); settings: foliage application, 320 g/ha, evaluated three weeks after application
Procedure, shortened: as §3

persian speedwell [8] = assay: Test Example 5: herbicidal effect by foliage application, plastic box (Table 20, symbol R); format: in vivo, Persian speedwell (Veronica persica); settings: foliage application, 320 g/ha, evaluated three weeks after application
Procedure, shortened: as §3

## Cc1nn(C)c(=O)c(-c2c(-c3cccc(OCC(C)C)c3)sc3ccc(F)cc23)c1O [2-221]
Late watergrass
  Herbicidal effect on A: late watergrass (grade 0-5): 5 (Herbicidal rate of 90% or more (almost completely withered))
Japanese bulrush
  herbicidal effect rating, B: Japanese bulrush: 3 (Herbicidal rate of 40% or more and less than 70%)
oval-leafed pondweed
  herbicidal effect rating, C: oval-leafed pondweed: 3 (Herbicidal rate of 40% or more and less than 70%)
Southern crabgrass [1]
  F: southern crabgrass, herbicidal effect rating: 5 (Herbicidal rate of 90% or more (almost completely withered))
Green foxtail
  G: green foxtail, herbicidal effect rating: 5 (Herbicidal rate of 90% or more (almost completely withered))
blackgrass
  J: blackgrass, herbicidal effect rating: 5 (Herbicidal rate of 90% or more (almost completely withered))
Italian ryegrass [2]
  K: Italian ryegrass, herbicidal effect rating: 4 (Herbicidal rate of 70% or more and less than 90%)
Redroot pigweed [3]
  N: redroot pigweed, herbicidal effect rating: 5 (Herbicidal rate of 90% or more (almost completely withered))
chickweed
  P: chickweed, herbicidal effect rating: 3 (Herbicidal rate of 40% or more and less than 70%)
Persian speedwell [4]
  R: persian speedwell, herbicidal effect rating: 5 (Herbicidal rate of 90% or more (almost completely withered))
Southern crabgrass [5]
  herbicidal effect on F: southern crabgrass (criteria 0-5): 5 (Herbicidal rate of 90% or more (almost completely withered))
Barnyard grass
  herbicidal effect on H: barnyard grass (criteria 0-5): 5 (Herbicidal rate of 90% or more (almost completely withered))
Italian ryegrass [6]
  herbicidal effect on K: Italian ryegrass (criteria 0-5): 5 (Herbicidal rate of 90% or more (almost completely withered))
Redroot pigweed [7]
  herbicidal effect on N: redroot pigweed (criteria 0-5): 5 (Herbicidal rate of 90% or more (almost completely withered))
lambsquarters
  herbicidal effect on O: lambsquarters (criteria 0-5): 5 (Herbicidal rate of 90% or more (almost completely withered))
Persian speedwell [8]
  herbicidal effect on R: persian speedwell (criteria 0-5): 5 (Herbicidal rate of 90% or more (almost completely withered))

## Cc1nn(C)c(=O)c(-c2c(-c3cccc(OC(C)(C)C)c3)sc3ccc(F)cc23)c1O [2-223]
Late watergrass
  Herbicidal effect on A: late watergrass (grade 0-5): 4 (Herbicidal rate of 70% or more and less than 90%)
Japanese bulrush
  herbicidal effect rating, B: Japanese bulrush: 2 (Herbicidal rate of 20% or more and less than 40%)
oval-leafed pondweed
  herbicidal effect rating, C: oval-leafed pondweed: 0 (Herbicidal rate of 5% or less (almost no effect))
Southern crabgrass [1]
  herbicidal effect on F: southern crabgrass: 4 (Herbicidal rate of 70% or more and less than 90%)
Green foxtail
  herbicidal effect on G: green foxtail: 3 (Herbicidal rate of 40% or more and less than 70%)
blackgrass
  herbicidal effect on J: blackgrass: 0 (Herbicidal rate of 5% or less (almost no effect))
Italian ryegrass [2]
  herbicidal effect on K: Italian ryegrass: 0 (Herbicidal rate of 5% or less (almost no effect))
Redroot pigweed [3]
  herbicidal effect on N: redroot pigweed: 3 (Herbicidal rate of 40% or more and less than 70%)
chickweed
  herbicidal effect on P: chickweed: 4 (Herbicidal rate of 70% or more and less than 90%)
Persian speedwell [4]
  herbicidal effect on R: persian speedwell: 4 (Herbicidal rate of 70% or more and less than 90%)
Southern crabgrass [5]
  herbicidal effect on F: southern crabgrass (criteria 0-5): 3 (Herbicidal rate of 40% or more and less than 70%)
Barnyard grass
  herbicidal effect on H: barnyard grass (criteria 0-5): 4 (Herbicidal rate of 70% or more and less than 90%)
Italian ryegrass [6]
  herbicidal effect on K: Italian ryegrass (criteria 0-5): 1 (Herbicidal rate of 5% or more and less than 20%)
Redroot pigweed [7]
  herbicidal effect on N: redroot pigweed (criteria 0-5): 4 (Herbicidal rate of 70% or more and less than 90%)
lambsquarters
  herbicidal effect on O: lambsquarters (criteria 0-5): 4 (Herbicidal rate of 70% or more and less than 90%)
Persian speedwell [8]
  herbicidal effect on R: persian speedwell (criteria 0-5): 5 (Herbicidal rate of 90% or more (almost completely withered))

## CCCC(=O)Oc1c(C)nn(C)c(=O)c1-c1c(-c2ccc(C(F)F)cc2)sc2ccc(F)cc12 [2-228]
Late watergrass
  Herbicidal effect on A: late watergrass (grade 0-5): 5 (Herbicidal rate of 90% or more (almost completely withered))
Japanese bulrush
  herbicidal effect rating, B: Japanese bulrush: 3 (Herbicidal rate of 40% or more and less than 70%)
oval-leafed pondweed
  herbicidal effect rating, C: oval-leafed pondweed: 3 (Herbicidal rate of 40% or more and less than 70%)
Southern crabgrass [1]
  herbicidal effect on F: southern crabgrass: 2 (Herbicidal rate of 20% or more and less than 40%)
Green foxtail
  herbicidal effect on G: green foxtail: 4 (Herbicidal rate of 70% or more and less than 90%)
blackgrass
  herbicidal effect on J: blackgrass: 0 (Herbicidal rate of 5% or less (almost no effect))
Italian ryegrass [2]
  herbicidal effect on K: Italian ryegrass: 0 (Herbicidal rate of 5% or less (almost no effect))
Redroot pigweed [3]
  herbicidal effect on N: redroot pigweed: 4 (Herbicidal rate of 70% or more and less than 90%)
chickweed
  herbicidal effect on P: chickweed: 4 (Herbicidal rate of 70% or more and less than 90%)
Persian speedwell [4]
  herbicidal effect on R: persian speedwell: 5 (Herbicidal rate of 90% or more (almost completely withered))
Southern crabgrass [5]
  herbicidal effect on F: southern crabgrass (criteria 0-5): 4 (Herbicidal rate of 70% or more and less than 90%)
Barnyard grass
  herbicidal effect on H: barnyard grass (criteria 0-5): 5 (Herbicidal rate of 90% or more (almost completely withered))
Italian ryegrass [6]
  herbicidal effect on K: Italian ryegrass (criteria 0-5): 3 (Herbicidal rate of 40% or more and less than 70%)
Redroot pigweed [7]
  herbicidal effect on N: redroot pigweed (criteria 0-5): 5 (Herbicidal rate of 90% or more (almost completely withered))
lambsquarters
  herbicidal effect on O: lambsquarters (criteria 0-5): 5 (Herbicidal rate of 90% or more (almost completely withered))
Persian speedwell [8]
  herbicidal effect on R: persian speedwell (criteria 0-5): 5 (Herbicidal rate of 90% or more (almost completely withered))

## CCSc1ccc(-c2sc3ccc(F)cc3c2-c2c(O)c(C)nn(C)c2=O)cc1 [2-244]
Late watergrass
  Herbicidal effect on A: late watergrass (grade 0-5): 3 (Herbicidal rate of 40% or more and less than 70%)
Japanese bulrush
  herbicidal effect rating, B: Japanese bulrush: 3 (Herbicidal rate of 40% or more and less than 70%)
oval-leafed pondweed
  herbicidal effect rating, C: oval-leafed pondweed: 4 (Herbicidal rate of 70% or more and less than 90%)
Southern crabgrass [1]
  herbicidal effect on F: southern crabgrass: 5 (Herbicidal rate of 90% or more (almost completely withered))
Green foxtail
  herbicidal effect on G: green foxtail: 5 (Herbicidal rate of 90% or more (almost completely withered))
blackgrass
  herbicidal effect on J: blackgrass: 5 (Herbicidal rate of 90% or more (almost completely withered))
Italian ryegrass [2]
  herbicidal effect on K: Italian ryegrass: 4 (Herbicidal rate of 70% or more and less than 90%)
Redroot pigweed [3]
  herbicidal effect on N: redroot pigweed: 5 (Herbicidal rate of 90% or more (almost completely withered))
chickweed
  herbicidal effect on P: chickweed: 1 (Herbicidal rate of 5% or more and less than 20%)
Persian speedwell [4]
  herbicidal effect on R: persian speedwell: 5 (Herbicidal rate of 90% or more (almost completely withered))
Southern crabgrass [5]
  herbicidal effect on F: southern crabgrass (criteria 0-5): 5 (Herbicidal rate of 90% or more (almost completely withered))
Barnyard grass
  herbicidal effect on H: barnyard grass (criteria 0-5): 5 (Herbicidal rate of 90% or more (almost completely withered))
Italian ryegrass [6]
  herbicidal effect on K: Italian ryegrass (criteria 0-5): 5 (Herbicidal rate of 90% or more (almost completely withered))
Redroot pigweed [7]
  herbicidal effect on N: redroot pigweed (criteria 0-5): 5 (Herbicidal rate of 90% or more (almost completely withered))
lambsquarters
  herbicidal effect on O: lambsquarters (criteria 0-5): 5 (Herbicidal rate of 90% or more (almost completely withered))
Persian speedwell [8]
  herbicidal effect on R: persian speedwell (criteria 0-5): 5 (Herbicidal rate of 90% or more (almost completely withered))

## CCCC(=O)Oc1c(C)nn(C)c(=O)c1-c1c(-c2ccc(SCC)cc2)sc2ccc(F)cc12 [2-245]
Late watergrass
  Herbicidal effect on A: late watergrass (grade 0-5): 4 (Herbicidal rate of 70% or more and less than 90%)
Japanese bulrush
  herbicidal effect rating, B: Japanese bulrush: 3 (Herbicidal rate of 40% or more and less than 70%)
oval-leafed pondweed
  herbicidal effect rating, C: oval-leafed pondweed: 4 (Herbicidal rate of 70% or more and less than 90%)
Southern crabgrass [1]
  herbicidal effect on F: southern crabgrass: 4 (Herbicidal rate of 70% or more and less than 90%)
Green foxtail
  herbicidal effect on G: green foxtail: 5 (Herbicidal rate of 90% or more (almost completely withered))
blackgrass
  herbicidal effect on J: blackgrass: 3 (Herbicidal rate of 40% or more and less than 70%)
Italian ryegrass [2]
  herbicidal effect on K: Italian ryegrass: 4 (Herbicidal rate of 70% or more and less than 90%)
Redroot pigweed [3]
  herbicidal effect on N: redroot pigweed: 5 (Herbicidal rate of 90% or more (almost completely withered))
chickweed
  herbicidal effect on P: chickweed: 4 (Herbicidal rate of 70% or more and less than 90%)
Persian speedwell [4]
  herbicidal effect on R: persian speedwell: 5 (Herbicidal rate of 90% or more (almost completely withered))
Southern crabgrass [5]
  herbicidal effect on F: southern crabgrass (criteria 0-5): 5 (Herbicidal rate of 90% or more (almost completely withered))
Barnyard grass
  herbicidal effect on H: barnyard grass (criteria 0-5): 5 (Herbicidal rate of 90% or more (almost completely withered))
Italian ryegrass [6]
  herbicidal effect on K: Italian ryegrass (criteria 0-5): 5 (Herbicidal rate of 90% or more (almost completely withered))
Redroot pigweed [7]
  herbicidal effect on N: redroot pigweed (criteria 0-5): 5 (Herbicidal rate of 90% or more (almost completely withered))
lambsquarters
  herbicidal effect on O: lambsquarters (criteria 0-5): 5 (Herbicidal rate of 90% or more (almost completely withered))
Persian speedwell [8]
  herbicidal effect on R: persian speedwell (criteria 0-5): 5 (Herbicidal rate of 90% or more (almost completely withered))
